# Where two headings read alike, the source gives them in different places.
# Target: T1, LmjIPCS (inositol phosphorylceramide synthase from L. major) (Leishmania major, UniProt E9AFX2)
# T1 sequence (E9AFX2 1-338): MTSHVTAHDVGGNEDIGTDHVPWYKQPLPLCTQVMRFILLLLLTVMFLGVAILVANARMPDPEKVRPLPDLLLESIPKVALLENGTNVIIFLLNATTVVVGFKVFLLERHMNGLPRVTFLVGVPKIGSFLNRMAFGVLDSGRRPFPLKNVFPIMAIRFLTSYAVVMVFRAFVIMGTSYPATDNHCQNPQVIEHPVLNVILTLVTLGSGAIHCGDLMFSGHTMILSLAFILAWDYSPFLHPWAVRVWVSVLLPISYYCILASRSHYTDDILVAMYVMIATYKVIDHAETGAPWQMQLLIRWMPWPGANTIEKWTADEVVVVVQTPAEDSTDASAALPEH
# Assay: biochemical
# Format: biochemical
# Design: inhibition: dose or concentration left out as unconfirmed
# Settings: for inhibition: read-out: inhibition LmjIPCS; for inhibition at 20000 µM: read-out: 20mM inhibition LmjIPCS
# [1] = NINDS set screen, single concentration printed as 20mM
structure (smiles),measurement,setting,value
C#CCCCCCCCCCCCC(O)CC(O)CO (centres unmarked) [AVOCADYNE],20mM inhibition LmjIPCS,[1],65%
C#CCCCCCCCCCCCC(=O)CC(O)COC(C)=O (centres unmarked) [AVOCADYNONE ACETATE],20mM inhibition LmjIPCS,[1],67%
Nc1ncn([C@@H]2O[C@H](CO)[C@@H](O)[C@H]2O)c(=O)n1 [AZACITIDINE],inhibition,,12%
C/C=C(\C)C(=O)O[C@H]1C[C@@H](OC(C)=O)[C@@]2(C(=O)OC)CO[C@H]3[C@@H](O)[C@@](C)([C@]45O[C@@]4(C)[C@H]4C[C@@H]5O[C@@H]5OC=C[C@@]54O)[C@H]4[C@]1(CO[C@]4(O)C(=O)OC)[C@@H]32 [AZADIRACHTIN],inhibition at 20000 µM,,3.53%
O=C(CCCN1CCN(c2ccccn2)CC1)c1ccc(F)cc1 [AZAPERONE],20mM inhibition LmjIPCS,,35%
[N-]=[N+]=CC(=O)OC[C@H](N)C(=O)O [AZASERINE],inhibition at 20000 µM,,14%
Cn1cnc([N+](=O)[O-])c1Sc1ncnc2nc[nH]c12 [AZATHIOPRINE],20mM inhibition LmjIPCS,,39%
O=C(O)CCCCCCCC(=O)O [AZELAIC ACID],20mM inhibition LmjIPCS,[1],38%
CN1CCCC(n2nc(Cc3ccc(Cl)cc3)c3ccccc3c2=O)CC1 (centres unmarked) [AZELASTINE],20mM inhibition LmjIPCS,[1],56%
CC[C@H]1OC(=O)[C@H](C)[C@@H](O[C@H]2C[C@@](C)(OC)[C@@H](O)[C@H](C)O2)[C@H](C)[C@@H](O[C@@H]2O[C@H](C)C[C@H](N(C)C)[C@H]2O)[C@](C)(O)C[C@@H](C)CN(C)[C@H](C)[C@@H](O)[C@]1(C)O [AZITHROMYCIN],inhibition,NINDS set screen,19%
CC1(C)S[C@@H]2[C@H](NC(=O)[C@H](NC(=O)N3CCNC3=O)c3ccccc3)C(=O)N2[C@H]1C(=O)O [AZLOCILLIN],inhibition at 20000 µM,,-4%
c1ccc(/N=N/c2ccccc2)cc1 [AZOBENZENE],inhibition at 20000 µM,,2.28%
CCOC(=O)OC(C)OC(=O)[C@@H]1N2C(=O)[C@@H](NC(=O)[C@H](N)c3ccccc3)[C@H]2SC1(C)C (some centres unmarked) [BACAMPICILLIN],20mM inhibition LmjIPCS,,48%
NCC(CC(=O)O)c1ccc(Cl)cc1 (centres unmarked) [BACLOFEN],20mM inhibition LmjIPCS,,50%
O=c1cc(-c2ccccc2)oc2cc(O)c(O)c(O)c12 [BAICALEIN],inhibition,,32%
CCOC(=O)[C@H](CCc1ccccc1)N[C@H]1CCc2ccccc2N(CC(=O)O)C1=O [BENAZEPRIL],inhibition at 20000 µM,,-0.0339%
NS(=O)(=O)c1cc2c(cc1C(F)(F)F)NC(Cc1ccccc1)NS2(=O)=O (centres unmarked) [BENDROFUMETHIAZIDE],20mM inhibition LmjIPCS,,63%
CC(Cc1cccc(C(F)(F)F)c1)NCCOC(=O)c1ccccc1 (centres unmarked) [BENFLUOREX],20mM inhibition LmjIPCS,,65%
NC(CO)C(=O)NNCc1ccc(O)c(O)c1O (centres unmarked) [BENSERAZIDE],20mM inhibition LmjIPCS,,43%
O=C1c2ccccc2-c2cccc3cccc1c23 [BENZANTHRONE],inhibition at 20000 µM,,16%
CCOC(=O)c1ccc(N)cc1 [BENZOCAINE],20mM inhibition LmjIPCS,[1],46%
NS(=O)(=O)c1cc2c(cc1Cl)N=C(CSCc1ccccc1)NS2(=O)=O [BENZTHIAZIDE],20mM inhibition LmjIPCS,[1],36%
S=C=NCc1ccccc1 [BENZYL ISOTHIOCYANATE],inhibition at 20000 µM,,6%
CC1(C)S[C@@H]2[C@H](NC(=O)Cc3ccccc3)C(=O)N2[C@H]1C(=O)O [BENZYL PENICILLIN],inhibition,,21%
CC(C)COCC(CN(Cc1ccccc1)c1ccccc1)N1CCCC1 (centres unmarked) [BEPRIDIL],20mM inhibition LmjIPCS,,61%
COc1cc2c3cc1Oc1c(OC)c(OC)cc4c1[C@@H](Cc1ccc(O)c(c1)Oc1ccc(cc1)C[C@@H]3N(C)CC2)N(C)CC4 [BERBAMINE],inhibition at 20000 µM,,18%
COc1ccc2cc3[n+](cc2c1OC)CCc1cc2c(cc1-3)OCO2 [BERBERINE],inhibition,,6%
COc1c2ccoc2cc2oc(=O)ccc12 [BERGAPTEN],inhibition,,17%
O=C1CCO1 [BETA-PROPIOLACTONE],20mM inhibition LmjIPCS,,1.45%
C[C@H]1C[C@H]2[C@@H]3CCC4=CC(=O)C=C[C@]4(C)[C@@]3(F)[C@@H](O)C[C@]2(C)[C@@]1(O)C(=O)CO [BETAMETHASONE],20mM inhibition LmjIPCS,,45%
O=C(O)CCNC(=O)c1ccccc1 [BETAMIPRON],inhibition at 20000 µM,,-3.5%
CC(C[N+](C)(C)C)OC(N)=O (centres unmarked) [BETHANECHOL],20mM inhibition LmjIPCS,,53%

# Source: article PMC7802075 (ACS Infectious Diseases, 2020)
